“And” between values parts separate entries of the source, which are not always exact repeats. Equal entries are not always repeated.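 Briefly, cells in 96-well plates were exposed to five compound concentrations for 48 h, and endpoints were estimated by linear interpolation. GI50 marks 50% less growth. Definition used: TGI = concentration required for complete inhibition of growth.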
Experiments:
Test in all cases: DTP human tumour cell line panel, 48 h
A549 NSCLC = system: A549 NSCLC
HS 578T breast = system: HS 578T breast
KM12 colon = system: KM12 colon
MCF7 breast = system: MCF7 breast
MDA-MB-231 breast = system: MDA-MB-231 breast
RXF 393 renal = system: RXF 393 renal
SK-OV-3 ovarian = system: SK-OV-3 ovarian
SW-620 colon = system: SW-620 colon
UACC-62 melanoma = system: UACC-62 melanoma
UO-31 renal = system: UO-31 renal

| Compound | GI50 (A549 NSCLC) | TGI (A549 NSCLC) | GI50 (HS 578T breast) | TGI (HS 578T breast) | GI50 (KM12 colon) | TGI (KM12 colon) | GI50 (MCF7 breast) | TGI (MCF7 breast) | GI50 (MDA-MB-231 breast) | TGI (MDA-MB-231 breast) | GI50 (RXF 393 renal) | TGI (RXF 393 renal) | GI50 (SK-OV-3 ovarian) | TGI (SK-OV-3 ovarian) | GI50 (SW-620 colon) | TGI (SW-620 colon) | GI50 (UACC-62 melanoma) | TGI (UACC-62 melanoma) | GI50 (UO-31 renal) | TGI (UO-31 renal) |
| --- | --- | --- | --- | --- | --- | --- | --- | --- | --- | --- | --- | --- | --- | --- | --- | --- | --- | --- | --- | --- |
| CC1(C)CC(=O)C2=C(C1)NC(SSC1=C(C#N)C(c3ccc(Br)cc3)C3=C(CC(C)(C)CC3=O)N1)=C(C#N)C2c1ccc(Br)cc1 (stereo not given) | > 150 µg/mL | > 100 µM and 150 µg/mL | 43.5 µg/mL | > 100 µM and 150 µg/mL | > 150 µg/mL | > 100 µM and 150 µg/mL | > 150 µg/mL | 150 µg/mL | 26.6 µg/mL | > 100 µM and 53.5 µg/mL | 41.6 µg/mL | > 100 µM and 123 µg/mL | > 150 µg/mL | > 100 µM and 150 µg/mL | 29.3 µg/mL | > 100 µM and 56.1 µg/mL | 122 µg/mL | > 100 µM and 150 µg/mL | 76.3 µg/mL | > 100 µM and 150 µg/mL |
| CCCCCCCCCCCC1=NC(C)(C)CN1CCO | 6.93 µM | 21.9 µM | 7.51 µM | 25.6 µM | 2.85 µM | 7.57 µM | 2.41 µM | 6.09 µM | 3.78 µM | 15.2 µM | 3.94 µM | 10.5 µM | 14.8 µM | 29.2 µM | 1.95 µM | 3.94 µM | 1.97 µM | 4.41 µM | 7.25 µM | 21 µM |
| COc1cc(C(=O)NC2CCN(C)CC2)ccc1Nc1ncc2c(n1)N(C1CCCC1)CC(F)(F)C(=O)N2C | < 0.0193 µM | 4.38 µM | 0.0585 µM | 1.53 µM | < 0.01 µM | 14.1 µM | < 0.01 µM | 10.5 µM | < 0.0186 µM | 17.3 µM | 0.054 µM | 11.8 µM | < 0.0133 µM | 0.761 µM | < 0.01 µM | 10.4 µM | < 0.0246 µM | 5.84 µM | 1.66 µM | 12.9 µM |
| Nc1ccccc1/C=N\Nc1ccccc1 | 4.7 µM | > 100 µM | > 100 µM | > 100 µM | 0.602 µM | > 100 µM | 8.92 µM | > 100 µM | 8.23 µM | > 100 µM | > 100 µM | > 100 µM | > 100 µM | > 100 µM | 11.5 µM | > 100 µM | 0.353 µM | > 100 µM | 2.43 µM | > 100 µM |
| COc1ccccc1CNCCCN1C(=O)c2ccc3c4c(ccc(c24)C1=O)C(=O)N(CCCNCCCCNCCCCN)C3=O | 2.3 µM | 7 µM | 2.83 µM | 14.4 µM | 2.42 µM | 6.91 µM | 0.498 µM | 2.24 µM | 0.944 µM | 8.17 µM | 2.09 µM | 10.1 µM | 2.82 µM | 14.1 µM | 0.417 µM | 10.1 µM | 1.53 µM | 3.66 µM | 3.44 µM | > 67.3 µM |
| CCCN(CCC)c1ccc(C=O)cc1 | > 100 µM | > 100 µM | > 62.1 µM | > 100 µM | > 70.8 µM | > 100 µM | 36 µM | > 100 µM | > 100 µM | > 100 µM | 72.2 µM | > 100 µM | > 100 µM | > 100 µM | 54.7 µM | > 100 µM | 42.8 µM | > 100 µM | 36.2 µM | > 100 µM |
